“Also recorded” adds a separate entry of the source. Bridge positions count the residues as written; N and C are the ends. Square brackets hold non-standard residues; d marks the D form. Ends that are not written are not given here. 1Nal = N[C@@H](Cc1cccc2ccccc12)C(=O)O; Sar = CNCC(=O)O
What was measured:
[1] = tested on: bone marrow cultures established from healthy human donors; experiment: Bone marrow cultures with patient serum (erythroid colonies); assay type: cell-based
Method: (§1) The anti-Peptide I antibody assay was performed in the laboratories of the Sponsor using an ELISA method, with a sensitivity of 300 ng/mL [Fan Q., et al. (2006) Exp. Hematol. 34: 1303-11; Woodburn K W, et al. (2007) Exp. Hematol. 35: 1201-8]. Anti-EPO antibodies were measured by radioimmune precipitation assay. To confirm that the patient's antibodies were not cross-reactive with Peptide I, serum from three patients was tested in bone marrow cultures (established from healthy human donors, as previously described [Verhelst D, et al. (2004) Lancet 363: 1768-71]). Culture conditions included 20% of either fetal calf serum as a control or one of the study patient's serum. Cultures included either 1 IU/mL of recombinant human EPO or 0.55 μg/mL of Peptide I (a concentration previously shown to be equivalent to 1 IU/mL of EPO for erythroid growth). Erythroid colonies were counted on day 7.

[2] = tested on: anti-Peptide I antibodies; experiment: Anti-Peptide I antibody assay (ELISA) in patient serum; set-up: species or system human; settings: 10 patients, after up to 10 doses
Method: as §1

[3] = tested on: patients with anti-EPO antibody-mediated PRCA; experiment: Open-label clinical study in patients with anti-EPO antibody-mediated PRCA; assay type: in vivo, human
Method: An open-label, prospective, non-randomized study was conducted to investigate the ability of Peptide I to correct anemia in patients with PRCA that is characterized by anti-EPO antibodies. The pre-specified primary objective was to determine if Peptide I could increase and maintain hemoglobin levels above 11 g/dL (consistent with both U.S.[KDOQI Clinical Practice Guidelines and Clinical Practice Recommendations for Anemia in Chronic Kidney Disease (2006) Am. J. Kidney Dis. 47 (Suppl 3):S11-S145.] and European Guidelines [Locatelli F, et al. (2004) Nephrol. Dial. Transplant 19 (Suppl 2): ii1-47.]) without the need for red cell transfusions in patients with anti-EPO antibody-mediated PRCA during 6 months of treatment. The effect of Peptide I on reducing red cell transfusions, the time required to correct anemia in the absence of transfusions, dose requirements, and safety were also assessed.
Patients older than 18 years of age were eligible for inclusion if they had CKD (with or without the need for dialysis) and PRCA or red cell hypoplasia due to anti-EPO antibodies. Patients were required to have a documented history of: (1) a decrease in hemoglobin concentration while receiving a stable or increased dose of a protein-based ESA, or red cell transfusion dependency; (2) reticulocyte counts of <30×10^9/L; (3) a bone marrow examination showing severe erythroid hypoplasia or aplasia; and (4) a confirmed positive test for anti-EPO antibodies. Patients may have received immunosuppressive therapy previously, but these medications were to be discontinued for at least three months prior to enrollment. At the time of enrollment, patients had to either be transfusion-dependent, or have a hemoglobin concentration persistently below 11 g/dL without ESA therapy. The presence of another hematological disorder, another known cause of PRCA, and current treatment with ESA or immunosuppressive therapy represented the major exclusion criteria.
Blood samples were taken for baseline measurement of the complete blood count, reticulocyte count, urea, electrolytes, liver function tests, iron status, anti-EPO antibodies, and anti-Peptide I antibodies. Upon meeting study eligibility criteria, treatment with Peptide I was initiated at a dose of 0.05 mg/kg by SC injection Q4W. Hemoglobin and reticulocyte counts were performed weekly, while samples were taken monthly for other safety laboratory parameters including urea, electrolytes, liver function tests and anti-EPO and anti-Peptide I antibodies. The frequency and dose of each injection was adjusted based on the patient's hemoglobin response to achieve a hemoglobin level in the target range of 11-13 g/dL. This target was subsequently changed to 11-12 g/dL in early 2007 following publication of the CREATE [Drueke T B, et al. (2006) N. Engl. J. Med. 355: 2071-84] and CHOIR [Singh A K, et al. (2006) N. Engl. J. Med 355: 2085-98] studies, in line with subsequent KDOQI recommendations [KDOQI Clinical Practice Guideline and Clinical Practice Recommendations for Anemia in Chronic Kidney Disease (2007) Am. J. Kidney Disease 50: 471-530].
The study was designed to enroll 5-20 patients with anti-EPO antibody mediated PRCA based on the Investigators' estimate of the maximum number of potentially eligible patients with access to the study centers. Patients were to be treated for an initial 6-month period. […] All patients who received at least one dose of Peptide I were included in the safety analysis, and those with at least one hemoglobin value following dosing were included in the efficacy analyses. All safety and efficacy results were summarized using descriptive statistics and data are presented as medians, 25th and 75th percentiles, and ranges.

[4] = in vivo; cited from earlier work
rat model of PRCA = experiment: Rat model of PRCA (anti-EPO antibody-induced anemia); assay type: in vivo
Method: The efficacy of Peptide I to correct anemia due to recombinant EPO anti-body induced PRCA was assessed in a rat model of PRCA. […] The rat model of PRCA consisted of induction of anti-EPO antibodies in a rat to yield a model of PRCA. Subsequent to inducing PRCA in rats, the erythropoietic activity of Peptide I, compared to rats treated with recombinant EPO, was evaluated in the rat model of PRCA following weekly administrations of Peptide I or recombinant EPO.
Additionally, administration of Peptide I to rats positive for anti-EPO antibodies allowed evaluation of Peptide I to correct PRCA-induced anemia.
Experiments were also conducted in anemic anti-EPO antibody positive rats to determine if normal hemoglobin levels could be maintained. The anemic anti-EPO antibody positive rats were treated with Peptide I approximately every 4 weeks for a total of additional seven injections. Hemoglobin levels in the Peptide I and vehicle-treated antibody-positive rats were compared to concurrent controls.
EPO-induced PRCA in humans and rats characterized by severe anemia associated with the presence of anti-EPO antibodies, an absence of reticulocytes, and limited bone marrow erythroid precursors with concomitant presence of normal numbers of granulocytic and megakaryocytic lineages. Peptide I corrected the EPO-induced anemia in these animals.

PEGylated homodimer of peptide monomers (AcG)GLYACHMGPIT(1-nal)VCQPLR(MeG)K (SEQ ID NO: 2), EPO-R agonist (Ac-GGLYACHMGPIT[1Nal]VCQPLR[Sar]K; disulfide 6-15 (inferred); not fully specified (residue 21); printed as (AcG)GLYACHMGPIT(1-nal)VCQPLR(MeG)K; also: PEGylated) [Peptide I]
erythroid growth in presence of patient serum ([1]; 20% serum of three patients, 1 IU/mL EPO or 0.55 μg/mL Peptide I, colonies counted day 7): erythroid differentiation was observed
concentration equivalent to 1 IU/mL of EPO for erythroid growth ([1]; previously shown): 0.55 µg/mL
anti-Peptide I antibodies in serum [2]: No anti-Peptide I antibodies were detected
patients with hemoglobin response (above 11 g/dL without transfusion) ([3]; 10 patients, median follow up 13.5 months, SC Q4W): 10 patients
tolerability ([3]; SC injections): generally well-tolerated
patients receiving red blood cell transfusions ([3]; as of month 4): one
median ferritin levels ([3]; at data cut-off, baseline 1,356 μg/L): 1,243 μg/L
median TSAT ([3]; at data cut-off, baseline 70.9%): 50.0%
patients receiving red blood cell transfusions ([3]; at month 6): no patient
median hemoglobin ([3]; by 6 months, baseline 9.7 g/dL): 11.6 g/dL
patients receiving red blood cell transfusions ([3]; during month 7 (prior to kidney transplant surgery)): one
patients receiving red blood cell transfusions ([3]; during the first month): 3 patients
patients receiving red blood cell transfusions ([3]; from month 8 onwards): no patient
median time to hemoglobin response ([3]; human, in vivo): 10 weeks
serious adverse events related to study drug ([3]; human, in vivo): none of these events was considered related to study drug; also recorded: no reports of serious adverse events related to Peptide I
serious adverse events ([3]; in 2 patients): Four
adverse events reported ([3]; in 10 patients): 108 events
adverse events at least possibly related to Peptide I ([3]; of 108 events): 4 events
adverse events mild or moderate in severity ([3]; of 108 events): 97 events
clearance times [4]: slow
half-life [4]: prolonged
maintenance of hemoglobin levels (rat model of PRCA; anemic anti-EPO antibody-positive rats, repeat administrations every 4 weeks): sustained correction of hemoglobin levels
reticulocytosis (rat model of PRCA; anti-EPO antibody-positive anemic rats, compared to recombinant EPO treated rats): significantly increased
hemoglobin levels (rat model of PRCA; anti-EPO positive animals versus antibody-negative control rats): greater than hemoglobin levels achieved in the anti-EPO antibody-negative control rats
correction of antibody-induced anemia (rat model of PRCA; rat model of PRCA): corrected antibody-induced anemia; also recorded: reversed
